Data from patent US9717803B2, “Enzymatic conjugation of polypeptides” (Innate Pharma, priority 2011, dated 2017).
“Also recorded” adds a separate entry of the source. Read-outs that look alike come from different tables or passages of the source.

Tests used:
[1] = cited from earlier work
[2] = biological target: T1, bacterial transglutaminase (BTG) (Streptomyces mobaraensis, UniProt P81453); assay type: biochemical; conditions: for BTG coupling, result in words: chADC1 N297S and chSGN35 N297S, 18.5 h
T1 construct: purchased Zedira, Darmstadt, Germany
T1 sequence (P81453 77-407): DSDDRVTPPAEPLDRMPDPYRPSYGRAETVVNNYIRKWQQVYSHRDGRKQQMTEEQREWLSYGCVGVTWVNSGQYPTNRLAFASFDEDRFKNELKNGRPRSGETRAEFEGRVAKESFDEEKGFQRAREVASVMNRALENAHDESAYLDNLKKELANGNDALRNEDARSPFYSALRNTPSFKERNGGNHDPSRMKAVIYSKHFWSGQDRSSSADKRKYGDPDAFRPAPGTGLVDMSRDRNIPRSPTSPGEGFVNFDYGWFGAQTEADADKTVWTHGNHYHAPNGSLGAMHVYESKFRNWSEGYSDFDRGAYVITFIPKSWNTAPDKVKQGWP

[3] = Solubility in water / aqueous buffer; assay type: physicochemical; conditions: aqueous buffer containing a maximum of 10% DMSO
[4] = PNGaseF-deglycosylated chADC1, 80 eq ligand, 6 U/ml BTG, 1 mg/ml mAb, 37° C.
[5] = chADC1 N297S, 80 eq ligand, 6 U/ml BTG, 1 mg/ml mAb, 37° C.
[6] = PNGaseF-deglycosylated chADC1, 6 U/mL BTG (optimized: 80 eq ligand, 1 mg/ml mAb, 37° C.)
[7] = PNGaseF-deglycosylated chADC1, standard conditions, 1 U/mL BTG
[8] = PNGaseF-deglycosylated chCE7, 80 eq ligand, 6 U/ml BTG, 1 mg/ml mAb, 37° C.
[9] = chADC1 N297Q (two acceptor glutamines per heavy chain), 80 eq ligand, 6 U/ml BTG, 1 mg/ml mAb, 37° C.

CC[C@@]1(O)C(=O)OCc2c1cc1n(c2=O)Cc2cc3ccccc3nc2-1 [CPT, camptothecin]
solubility in water [1]: about 2.5 μg/ml

CC(=O)O[C@H]1C(=O)[C@@]2(C)[C@H]([C@H](OC(=O)c3ccccc3)[C@]3(O)C[C@H](OC(=O)[C@H](O)[C@@H](NC(=O)c4ccccc4)c4ccccc4)C(C)=C1C3(C)C)[C@]1(OC(C)=O)CO[C@@H]1C[C@@H]2O [PTX, paclitaxel]
solubility in water [1]: less than 1 μg/ml

NCCCCCNC(=O)CCCCCSC1CC(=O)N(CCNC(=O)CN2CCN(CC(=O)O)CCN(CC(=O)O)CCN(CC(=O)O)CC2)C1=O (stereo not shown) [C6-DOTA, 2,2′,2″-(10-(2-((2-(3-((6-((5-aminopentyl)amino)-6-oxohexyl)thio)-2,5-dioxopyrrolidin-1-yl)ethyl)-amino)-2-oxoethyl)-1,4,7,10-tetraazacyclododecane-1,4,7-triyl)triacetic acid]
unmodified heavy chain (LC-MS peak) [2, 4]: 30%
BTG coupling to heavy chain, result in words [2, 5]: near quantitative coupling

CN(C)c1cccc2c(S(=O)(=O)NCCCCCN)cccc12 [dansyl-cadaverin, reference compound]
BTG coupling to heavy chain, result in words [2, 6]: modification of all heavy chains
BTG coupling to heavy chain, result in words [2, 7]: did not go to completion
solubility in aqueous buffer, in words [3]: limited solubility

maleimide-valine-citrullin-PAB-MMAF+6C Thiol Linker [MMAF linker]
heavy chain with one linker coupled (LC-MS peak) [2, 4]: 30%
unmodified heavy chain (LC-MS peak) [2, 4]: 70%
heavy chain with one linker coupled (LC-MS peak) [2, 8]: 19%
unmodified heavy chain (LC-MS peak) [2, 8]: 81%
BTG coupling with prolonged incubation, result in words ([2]; PNGaseF-deglycosylated mAb, 160 eq substrate, 6 U/mL BTGase, 40 h or 110 h, 37° C.): does not push the reaction to completion
heavy chain with one MMAF linker (LC-MS peak) [2, 9]: 75%
heavy chain with two MMAF linkers (LC-MS peak) [2, 9]: 25%
BTG coupling, result in words ([2]; 40 eq linker, 4 U/mL or 2 U/mL BTG, 37° C.): quantitatively functionalized
BTG coupling, result in words ([2]; 80 eq linker, 4 U/ml or 2 U/ml BTG, 37° C.): complete functionalization
BTG coupling, result in words ([2]; below 40 eq linker, 4 U/mL or 2 U/mL BTG, 37° C.): no longer quantitative
heavy chain with one linker coupled (LC-MS peak) [2, 5]: greater than 90%

NCCCCCNC(=O)CSC1CC(=O)N(CCNC(=O)CN2CCN(CC(=O)O)CCN(CC(=O)O)CCN(CC(=O)O)CC2)C1=O (stereo not shown) [C2-DOTA, 2,2′,2″-(10-(2-((2-(3-((2-((5-aminopentyl)amino)-2-oxoethyl)thio)-2,5-dioxopyrrolidin-1-yl)ethyl)-amino)-2-oxoethyl)-1,4,7,10-tetraazacyclododecane-1,4,7-triyl)triacetic acid]
BTG coupling to heavy chain, result in words [2, 6]: minor peak modified chADC1 heavy chain
heavy chain with one linker coupled (LC-MS peak) [2, 4]: 30%
unmodified heavy chain (LC-MS peak) [2, 4]: 70%
BTG coupling to heavy chain, result in words [2, 7]: only unmodified chADC1 heavy chain
BTG coupling to heavy chain, result in words [2, 5]: quantitative coupling could not be accomplished

[N-]=[N+]=NCCOCCOCCOCCOCCN [Azide-PEG4-NH2, reference compound]
BTG coupling to two glutamines per heavy chain, result in words ([2]; chADC1 N297Q, 80 eq ligand, 6 U/ml BTG, 1 mg/ml mAb, 37° C.): complete coupling to two glutamines on all heavy chains
BTG coupling to heavy chain, result in words [2, 5]: quantitative

biotin-cadaverin [reference compound]
BTG coupling to heavy chain, result in words [2, 6]: modification of all heavy chains
BTG coupling to heavy chain, result in words [2, 7]: did not go to completion

NCCCCCNC(=O)c1ccc(-c2c3ccc(=O)cc-3oc3cc(O)ccc23)c(C(=O)O)c1 [cadaverin-fluorescein linker, reference compound]
BTG coupling to heavy chain, result in words [2, 6]: coupling could not be achieved; also recorded: Only partial modification
